From ChEMBL document CHEMBL1201862, “PubChem BioAssay data set” (2004)
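Test compounds were applied to cells in 96-well plates for 48 hours at 5 doses. GI50: concentration for 50% inhibition of growth.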 The source made the active and inactive calls. Cut-off read from the data, not from the text of the source: active = GI50 up to about 1.1 µM and inactive = higher.

Columns and labels:
Experiment in all cases: NCI anticancer screen, dose series, 48 h
SNB-75 = system: SNB-75
NCI-H460 = system: NCI-H460
K562 = system: K562
HCT-15 = system: HCT-15
SF-539 = system: SF-539
U-251 = system: U-251
NCI-H226 = system: NCI-H226
SF-295 = system: SF-295
OVCAR-5 = system: OVCAR-5
OVCAR-4 = system: OVCAR-4
Malme-3M = system: Malme-3M
HCC 2998 = system: HCC 2998
UACC-62 = system: UACC-62
XF498 = system: XF498
EKVX = system: EKVX
RXF 631 = system: RXF 631
RXF 393 = system: RXF 393
HCT-116 = system: HCT-116
OVCAR-8 = system: OVCAR-8
M14 = system: M14
HT-29 = system: HT-29
HOP-92 = system: HOP-92
MOLT-4 = system: MOLT-4
SF-268 = system: SF-268
SN12C = system: SN12C
A549 = system: A549
IGROV-1 = system: IGROV-1
TK-10 = system: TK-10
SW-620 = system: SW-620
ACHN = system: ACHN
NCI-H522 = system: NCI-H522
DMS-273 = system: DMS-273
DMS-114 = system: DMS-114
SNB-19 = system: SNB-19
SK-OV-3 = system: SK-OV-3
CCRF-CEM = system: CCRF-CEM
OVCAR-3 = system: OVCAR-3
CAKI-1 = system: CAKI-1
COLO 205 = system: COLO 205
UACC-257 = system: UACC-257
KM12 = system: KM12
NCI-H23 = system: NCI-H23
DLD-1 = system: DLD-1
KM-20L2 = system: KM-20L2
SK-MEL-2 = system: SK-MEL-2
LXFL 529 = system: LXFL 529
SK-MEL-28 = system: SK-MEL-28
786-0 = system: 786-0
LOX IMVI = system: LOX IMVI
UO-31 = system: UO-31
M19-MEL = system: M19-MEL
SNB-78 = system: SNB-78
HL-60 = system: HL-60
HOP-62 = system: HOP-62
A498 = system: A498
SR = system: SR
SK-MEL-5 = system: SK-MEL-5
RPMI-8226 = system: RPMI-8226

Cc1ccc(S(=O)(=O)C2CC2(Cl)Cl)cc1 (stereo not drawn)
GI50 (SNB-75): 55.7 µM (inactive) | GI50 (NCI-H460): 50.1 µM (inactive) | GI50 (K562): 26.5 µM (inactive) | GI50 (HCT-15): 23.4 µM | GI50 (SF-539): 31.4 µM (inactive) | GI50 (U-251): > 100 µM (inactive) | GI50 (NCI-H226): > 100 µM (inactive) | GI50 (SF-295): 38.6 µM (inactive) | GI50 (OVCAR-5): > 100 µM (inactive) | GI50 (OVCAR-4): 0.0162 µM (active) | GI50 (Malme-3M): 19.6 µM (inactive) | GI50 (HCC 2998): 44.4 µM (inactive) | GI50 (UACC-62): 27.4 µM (inactive) | GI50 (XF498): 21.2 µM (inactive) | GI50 (EKVX): > 100 µM (inactive) | GI50 (RXF 631): 20.9 µM (inactive) | GI50 (RXF 393): 15.1 µM (inactive) | GI50 (HCT-116): 20.4 µM (inactive) | GI50 (OVCAR-8): 20.9 µM (inactive) | GI50 (M14): 14.7 µM (inactive) | GI50 (HT-29): 18.8 µM (inactive) | GI50 (HOP-92): 26 µM (inactive) | GI50 (MOLT-4): 13.9 µM (inactive) | GI50 (SF-268): 34 µM (inactive) | GI50 (SN12C): 18.7 µM (inactive) | GI50 (A549): > 100 µM (inactive) | GI50 (IGROV-1): 26.9 µM (inactive) | GI50 (TK-10): > 100 µM (inactive) | GI50 (SW-620): 22.3 µM (inactive) | GI50 (ACHN): 25.6 µM (inactive) | GI50 (NCI-H522): 12.5 µM (inactive) | GI50 (DMS-273): 32.5 µM (inactive) | GI50 (DMS-114): 19.7 µM (inactive) | GI50 (SNB-19): > 100 µM (inactive) | GI50 (SK-OV-3): > 100 µM (inactive) | GI50 (CCRF-CEM): 11.1 µM (inactive) | GI50 (OVCAR-3): 19.9 µM (inactive) | GI50 (CAKI-1): 26.6 µM (inactive) | GI50 (COLO 205): 21.6 µM (inactive) | GI50 (UACC-257): 21.2 µM (inactive) | GI50 (KM12): 66.2 µM (inactive) | GI50 (NCI-H23): 24.7 µM (inactive) | GI50 (DLD-1): 24.2 µM (inactive) | GI50 (KM-20L2): > 100 µM (inactive) | GI50 (SK-MEL-2): 33.2 µM (inactive) | GI50 (LXFL 529): 18.9 µM (inactive) | GI50 (SK-MEL-28): 53.1 µM (inactive) | GI50 (786-0): 20.7 µM (inactive) | GI50 (LOX IMVI): 15.9 µM (inactive) | GI50 (UO-31): 22 µM (inactive) | GI50 (M19-MEL): 25.1 µM (inactive)

C(=N\Nc1ccccc1)/c1nc2ccccc2nc1/C=N/Nc1ccccc1
GI50 (SNB-75): 12.2 µM (inactive) | GI50 (NCI-H460): 13.9 µM (inactive) | GI50 (SNB-78): 20.7 µM (inactive) | GI50 (K562): 7.6 µM (inactive) | GI50 (HCT-15): 4.39 µM | GI50 (SF-539): 14.8 µM (inactive) | GI50 (NCI-H226): 18 µM (inactive) | GI50 (SF-295): 16.2 µM (inactive) | GI50 (HL-60): 31 µM (inactive) | GI50 (OVCAR-5): 27 µM (inactive) | GI50 (OVCAR-4): 27.8 µM (inactive) | GI50 (Malme-3M): 24.9 µM (inactive) | GI50 (HCC 2998): 8.02 µM (inactive) | GI50 (UACC-62): 12.9 µM (inactive) | GI50 (EKVX): 22.1 µM (inactive) | GI50 (RXF 631): 13.6 µM (inactive) | GI50 (RXF 393): 16.3 µM (inactive) | GI50 (HCT-116): 12.7 µM (inactive) | GI50 (OVCAR-8): 6.75 µM (inactive) | GI50 (M14): 14.7 µM (inactive) | GI50 (HT-29): 10.8 µM (inactive) | GI50 (HOP-92): 17.5 µM (inactive) | GI50 (MOLT-4): 13.2 µM (inactive) | GI50 (SF-268): 13.1 µM (inactive) | GI50 (HOP-62): 15.9 µM (inactive) | GI50 (SN12C): 16.2 µM (inactive) | GI50 (A549): 14.3 µM (inactive) | GI50 (IGROV-1): 12.1 µM (inactive) | GI50 (TK-10): 15.8 µM (inactive) | GI50 (SW-620): 14.9 µM (inactive) | GI50 (ACHN): 11.8 µM (inactive) | GI50 (NCI-H522): 16.5 µM (inactive) | GI50 (SNB-19): 18.9 µM (inactive) | GI50 (SK-OV-3): 22 µM (inactive) | GI50 (A498): 16.6 µM (inactive) | GI50 (CCRF-CEM): 23.6 µM (inactive) | GI50 (OVCAR-3): 16.6 µM (inactive) | GI50 (CAKI-1): 7.71 µM (inactive) | GI50 (UACC-257): 23 µM (inactive) | GI50 (SR): 19.9 µM (inactive) | GI50 (KM12): 13 µM (inactive) | GI50 (NCI-H23): 13.3 µM (inactive) | GI50 (DLD-1): 11.3 µM (inactive) | GI50 (KM-20L2): 8.73 µM (inactive) | GI50 (SK-MEL-2): 18.2 µM (inactive) | GI50 (LXFL 529): 11 µM (inactive) | GI50 (SK-MEL-28): 17.5 µM (inactive) | GI50 (786-0): 15.6 µM (inactive) | GI50 (LOX IMVI): 9.25 µM (inactive) | GI50 (UO-31): 32.2 µM (inactive) | GI50 (M19-MEL): 20.7 µM (inactive) | GI50 (SK-MEL-5): 19 µM (inactive)

COC(=O)/C(C#N)=C1\CCC(C(=O)OC)N1C (stereo not drawn)
GI50 (SNB-75): > 100 µM (inactive) | GI50 (NCI-H460): > 100 µM (inactive) | GI50 (SNB-78): > 100 µM (inactive) | GI50 (K562): > 100 µM (inactive) | GI50 (HCT-15): > 100 µM | GI50 (SF-539): > 100 µM (inactive) | GI50 (U-251): > 100 µM (inactive) | GI50 (SF-295): > 100 µM (inactive) | GI50 (HL-60): > 100 µM (inactive) | GI50 (OVCAR-4): > 100 µM (inactive) | GI50 (HCC 2998): > 100 µM (inactive) | GI50 (RPMI-8226): > 100 µM (inactive) | GI50 (UACC-62): > 100 µM (inactive) | GI50 (XF498): > 100 µM (inactive) | GI50 (EKVX): > 100 µM (inactive) | GI50 (RXF 631): > 100 µM (inactive) | GI50 (RXF 393): > 100 µM (inactive) | GI50 (HCT-116): > 100 µM (inactive) | GI50 (OVCAR-8): > 100 µM (inactive) | GI50 (M14): > 100 µM (inactive) | GI50 (HOP-92): > 100 µM (inactive) | GI50 (MOLT-4): > 100 µM (inactive) | GI50 (SF-268): > 100 µM (inactive) | GI50 (HOP-62): > 100 µM (inactive) | GI50 (SN12C): > 100 µM (inactive) | GI50 (A549): > 100 µM (inactive) | GI50 (IGROV-1): > 100 µM (inactive) | GI50 (TK-10): > 100 µM (inactive) | GI50 (NCI-H522): > 100 µM (inactive) | GI50 (DMS-273): > 100 µM (inactive) | GI50 (DMS-114): > 100 µM (inactive) | GI50 (SNB-19): > 100 µM (inactive) | GI50 (SK-OV-3): > 100 µM (inactive) | GI50 (A498): > 100 µM (inactive) | GI50 (CCRF-CEM): > 100 µM (inactive) | GI50 (OVCAR-3): > 100 µM (inactive) | GI50 (CAKI-1): > 100 µM (inactive) | GI50 (COLO 205): > 100 µM (inactive) | GI50 (UACC-257): > 100 µM (inactive) | GI50 (SR): > 100 µM (inactive) | GI50 (KM12): > 100 µM (inactive) | GI50 (NCI-H23): > 100 µM (inactive) | GI50 (DLD-1): > 100 µM (inactive) | GI50 (KM-20L2): > 100 µM (inactive) | GI50 (SK-MEL-2): > 100 µM (inactive) | GI50 (SK-MEL-28): > 100 µM (inactive) | GI50 (786-0): > 100 µM (inactive) | GI50 (UO-31): > 100 µM (inactive) | GI50 (M19-MEL): > 100 µM (inactive) | GI50 (SK-MEL-5): > 100 µM (inactive)
